Measured values from US20250057803A1, “PRODUCTS OF MANUFACTURE AND METHODS FOR TREATING, AMELIORATING OR PREVENTING CORONAVIRUS INFECTION” (TOPELIA AUST LIMITED (ACN 652 771 670), priority 2020, published 2025).

What was measured:
coronavirus COVID-19 [1] = assay type: in vivo; conditions: contact of a positive patient; after 4 days of treatment
coronavirus COVID-19 [2] = assay type: in vivo, human

Compound | blood result for COVID-19 virus (coronavirus COVID-19 [1]) | contraction of COVID-19 under prophylaxis (coronavirus COVID-19 [2]; […], group of elderly travelers on a ship with cases) | test for the virus upon arrival home after the cruise (coronavirus COVID-19 [2]; in vivo)
CCOC(=O)C1=C[C@@H](OC(CC)CC)[C@H](NC(C)=O)[C@@H](N)C1 [osteltamivir, oseltamivir] | positive | – | –
CCN(CC)CCCC(C)Nc1ccnc2cc(Cl)ccc12 (stereo not drawn) [chloroquine] | – | None contract COVID-19 coronavirus | negative
